One test concerns melan-a melanocytes. Briefly: Melanin assay / pigmentation of cultured melanocytes. Format: cell-based, mouse. Here is the method: The numbers above the bars indicate the percent increase in melanin production relative to the untreated control. For this assay, melan-a melanocytes were cultured in DMEM supplements with 10% FCS, 1% L-glutamine, 1% penicillin/streptomycin, and 40 nM TPA. The cultures were maintained at 37° C., 5% CO2. The cells were seeded at 5×10^4 cells per well in 24 well plates and treated for 72 hours. Photographs were taken after 72 hours at 40× magnification. The cells were harvested, centrifuged, and the protein was extracted from the pellet with 1:1 ethanol:ether. The melanin pellets were solubilized in 20% DMSO/2N NaOH. Samples were transferred to a 96-well plate and the optical density was read at 490 nm using a Biorad 550 spectrophotometer.
The cells were rinsed with phosphate buffered saline (PBS) and lysed with an extraction buffer of […] Tris, pH 7.5; 2 mM ethylenediamine tetraacetic acid (EDTA), pH 7.8; 150 mM NaCl; 1% Titron X-100, with protease inhibitor cocktail at 4° C. The cell extracts were then spun at 12,000 rpm for 10 minutes at 4° C. The remaining pellet was assayed for melanin by rinsing twice with ethanol-ether (1:1) and dissolving in 200 microL of 2N NaOH in 20% DMSO at 60° C. A 100 microL aliquot of the resulting solution was then measured for absorbance at […].

Test [1] deals with T1, mitochondrial F1F0 ATPase (Mus musculus, UniProt P56480+Q03265+Q9CR84).
T1 construct: endogenous in cells; host or cells: Melan-a murine melanocytes
Kind of test: Affinity chromatography on immobilized PPA (PPA-Affi) with competition, melanocyte extracts. As to conditions: for competition with ATPase binding to PPA affinity matrix: melan-a extracts, competitor 30 minutes at 4° C., antibodies to beta and alpha subunits. Type of test: binding. The procedure:
Melanocyte extracts were incubated with PPA-Affi in the presence of the compounds shown. After extensive washing, bound proteins were then eluted with SDS-containing buffer and subjected to SDS-PAGE and silver staining. […] The binding of mitochondrial ATPase was inhibited not only by PPA itself but also by oligomycin, a known mitochondrial ATPase inhibitor.
FIG. 5 is another illustration that mitochondrial ATPase is the target of PPA. The experimental protocol were similar to those described above, but rather than silver stain, immunoblotting was conducted with antibodies to the beta and alpha subunits of the mitochondrial ATPase. The primary antibody in A was anti-F1-ATPase beta subunit antibody (1:2500, 1 hour), and the primary antibody in B was anti-ATPase alpha subunit antibody (1:2500, 1 hour). The secondary antibody was anti-mouse Goat IgG (1:2500, 1 hour).
For this experiment, the cell source was Melan-a (murine melanocyte). The reaction volume was 147 microL of protein extract (0.3 mg/mL)+147 microL bead buffer+6 microL competitor (aurovertin or PPA6 or DMSO). The competition took place for 30 minutes at 4° C. with rocking. The bead volume was 40 microL of 50% slurry. The beads were washed with 1 mL bead buffer seven times. Elution was with 40 microL+30 microL Laemmli buffer, heating for 4 minutes at 90° C.
For the gel electrophoresis, the gel was 10% SDS-PAGE gel, 20-well combination. The loading volume was 25 microL (2nd elution). Running was 30V, overnight.
Protein was extracted from cells by incubation with extraction buffer (1 mM CaCl2, 150 mM NaCL; 10 mM Tris, pH 7.4; 1% Triton X-100, 1 mM PMSF plus protease inhibitor cocktail (Roche, NJ, USA) for five minutes on ice. Crude lysate was centrifuged at 13,000 rpm for ten minutes. The protein concentration of the supernatant was measured by the Bradford assay (Bio-Rad, CA) and adjusted to a final concentration of 1 microg/microL prior to affinity chromatography. […]

Test [2] has as its target T2, mitochondrial ATPase (beta subunit, OSCP) (Homo sapiens, UniProt P05496+P06576+P48047).
T2 construct: Using human melanoma cell source SK Mel 19, the reaction volume was 147 microL of protein extract; endogenous in cells; host or cells: SK Mel19 human melanoma cells
Briefly: PPA-Affi affinity binding and competition, SK Mel19 extracts. The settings on record: SK Mel19 protein extract. Here is the method:
Using human melanoma cell source SK Mel 19, the reaction volume was 147 microL of protein extract (1.0 mg/mL)+147 microL bead buffer+6 microL competitor (oligomycin) or S+DMSO. Competition was effected for 30 minutes at 4° C. with rocking. The bead volume was 40 microL of 50% slurry. Washing was five times with 1 mL bead buffer, and elution was with 40 microL Laemmli buffer, with heating for 4 minutes at 90° C. Gel electrophoresis was with 10% SDS-PAGE gel, 20 well combination. Loading volume was 35 microL, and running was 30V, overnight.
Using human melanoma cell source SK Mel 19, the reaction volume was 99 microL of protein extract (1.0 mg/mL)+99 microL bead buffer+2 microL competitor (oligomycin) or DMSO. Incubation was effected for 30 minutes at 4° C. with rocking. The bead volume was 40 microL of 50% slurry. Washing was five times with 1 mL bead buffer, and elution was with 40 microL Laemmli buffer, with heating for 4 minutes at 90° C. Gel electrophoresis was with 10% SDS-PAGE gel, 20 well combination. Loading volume was 35 microL, and running was 100V for one hour.

The target of test [3] is T3, tyrosinase (Mus musculus, UniProt P11344).
T3 construct: tyrosinase assay on cell lysates derived from whole cells; endogenous in cells; host or cells: melanocytes
T3 sequence (P11344 19-533): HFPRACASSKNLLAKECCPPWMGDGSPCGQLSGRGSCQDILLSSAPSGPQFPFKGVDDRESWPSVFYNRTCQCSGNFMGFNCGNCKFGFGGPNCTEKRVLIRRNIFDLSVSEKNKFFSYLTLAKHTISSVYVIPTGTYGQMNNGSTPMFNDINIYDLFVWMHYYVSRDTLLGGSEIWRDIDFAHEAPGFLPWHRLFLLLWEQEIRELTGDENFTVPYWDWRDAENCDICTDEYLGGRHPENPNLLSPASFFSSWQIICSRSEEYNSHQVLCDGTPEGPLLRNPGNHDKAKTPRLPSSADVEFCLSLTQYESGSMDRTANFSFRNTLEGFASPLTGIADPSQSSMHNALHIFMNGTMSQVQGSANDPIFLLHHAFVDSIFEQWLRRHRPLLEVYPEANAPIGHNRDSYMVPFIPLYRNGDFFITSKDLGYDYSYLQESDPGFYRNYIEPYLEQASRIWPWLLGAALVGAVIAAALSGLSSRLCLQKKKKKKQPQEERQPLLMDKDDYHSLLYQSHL
Briefly: Tyrosinase assay on pre-lysed cells. Format: biochemical. As to conditions: pre-lysed cells treated with compound.

Test [4] relates to tyrosinase. Kind of test: Tyrosinase assay on conditioned media. Format: cell-based. The settings on record: conditioned media of treated cells.

For `CC[C@H]1O[C@]2(C)[C@H](OC(C)=O)[C@@]1(C)O[C@@H](/C=C/C=C/C=C/c1oc(=O)cc(OC)c1C)[C@@H]2O` [aurovertin, aurovertin B], the “pigmentation (melanin production)” value in the test with melan-a melanocytes is reported as “promote pigmentation”. In addition, the “competition with ATPase binding to PPA affinity matrix” value in test [1] is “do not compete”.

Turning to `CC[C@H]1/C=C/C=C/C[C@@H](C)[C@H](O)[C@@](C)(O)C(=O)[C@@H](C)[C@H](O)[C@@H](C)C(=O)[C@@H](C)[C@H](O)[C@@H](C)/C=C/C(=O)O[C@@H]2[C@H](C)[C@H](CC1)O[C@]1(CC[C@H](C)[C@H](C[C@@H](C)O)O1)[C@H]2C` [oligomycin, Oligomycin], in the test on melan-a melanocytes, the “pigmentation (melanin production)” value is “promote pigmentation”. Besides, the “elution of beta subunit and OSCP bound to PPA-Affi” value in test [2] is “eluted by oligomycin”. Moreover, the “competition with ATPase binding to PPA affinity matrix” value in test [1] is recorded as “competed with ATPase binding”. In addition, in test [1] (melanocyte extracts, SDS-PAGE and silver staining), the “inhibition of binding of mitochondrial ATPase to PPA-Affi” value was “inhibited”.

In the case of `CC(C)Cn1c(=O)n(C)c(=O)c2[nH]cnc21` [IBMX, 3-Isobutyl-1-methylxanthine], at tyrosinase [3], the tyrosinase activity entry is listed as “only a marginal change”. In addition, the secreted tyrosinase activity entry in the test with tyrosinase [4] was “large increase in secreted enzyme activity”.

For the compound `NC(=S)Nc1ccccc1` [PTU, phenylthiourea], on tyrosinase [3], the tyrosinase activity result is “significant decrease in tyrosinase activity”.
